In patent US20080234233A1, “MEDICAMENT FOR TREATMENT OF NEURODEGENERATIVE DISEASES” (INSTITUTE OF MEDICINAL MOLECULAR DESIGN INC., priority 2002, published 2008):

Tested on: NF-κ B activation
Assay: Inhibitory activity of NF-κB activation, luciferase reporter assay under TNF-α stimulation in HepG2
Assay type: cell-based, human
Settings: HepG2, TNF-α 40 ng/ml, 4 hours; for inhibition at 1 µg/mL / inhibition at 10 µg/mL: Homo sapiens, read-out: Inhibitory rate against NF-κB activation (%)
Method: Measurement of Inhibitory Activity of NF-κB activation
Using a transfection reagent (Effectene; QIAGEN), the human hepatoma cell strain HepG2 was transfected with a plasmid (pNF κ B-Luc Reporter Plasmid; […]) integrated with an oligonucleotide having five tandem copies of NF-κ B binding sequences([…]) on a upstream region of firefly luciferase gene(Luc) according to the QIAGEN's protocol, and the cells were incubated for 6 to 24 hours. After addition of TNF-α (40 ng/ml) in the presence or absence of a test compound, the cells were incubated for 4 hours, and intracellular luciferase activity was measured by using PicaGene LT (TOYO INK MFG Co., Ltd.) and a chemical luminescence measurement apparatus ([…]luor Plus; TECAN). The inhibitory ratio was measured as a ratio relative to the value of the luciferase activity in the absence of the test compound.

Row | SMILES | inhibition at 1 µg/mL (Drug concentration at 1 μg/mL) | inhibition at 10 µg/mL (Drug concentration at 10 μg/mL) | Inhibitory rate against NF-κB activation (%) (Drug concentration at 10 μg/mL) | Inhibitory rate against NF-κB activation (%) (Drug concentration at 1 μg/mL)
1 | O=C(Nc1cc(C(F)(F)F)cc(C(F)(F)F)c1)c1cc(S(=O)(=O)n2cccc2)ccc1O [compound 42, N-[3,5-Bis(trifluoromethyl)phenyl]-2-hydroxy-5-(pyrrole-1-sulfonyl)benzamide] | 84.4% | 98.1% |  | 
2 | CN(C)c1ccc(O)c(C(=O)Nc2cc(C(F)(F)F)cc(C(F)(F)F)c2)c1 [compound 44] |  |  | 67.5% | 
3 | O=C(Nc1ccc(O)c(C(=O)Nc2cc(C(F)(F)F)cc(C(F)(F)F)c2)c1)c1ccccc1 [compound 45] |  |  | 63.4% | 
4 | O=C(Nc1ccccc1)Nc1ccc(O)c(C(=O)Nc2cc(C(F)(F)F)cc(C(F)(F)F)c2)c1 [compound 46] |  |  | 88.4% | 20.5%
5 | O=C(Nc1cc(C(F)(F)F)cc(C(F)(F)F)c1)c1cc(NC(=S)Nc2ccccc2)ccc1O [compound 47] |  |  | 97.2% | 51.8%
6 | O=C(Nc1cc(C(F)(F)F)cc(C(F)(F)F)c1)c1cc(N=Nc2ccc([N+](=O)[O-])cc2)ccc1O [compound 48] |  |  | 98.7% | 96.2%
7 | O=C(Nc1cc(C(F)(F)F)cc(C(F)(F)F)c1)c1cc(N=Nc2ccc(S(=O)(=O)Nc3ccccn3)cc2)ccc1O [compound 49] |  |  | 89.1% | 19.4%
8 | Cc1ccc(C(=O)Nc2cc(C(F)(F)F)cc(C(F)(F)F)c2)c(O)c1 [compound 53] |  |  | 94.5% | 93.3%
9 | O=C(Nc1cc(C(F)(F)F)cc(C(F)(F)F)c1)c1cc(Br)c(O)cc1O [compound 54] |  |  | 86.5% | 
10 | O=C(Nc1cc(C(F)(F)F)cc(C(F)(F)F)c1)c1ccc(O)cc1O [compound 55] |  |  | 88.6% | 10.8%
11 | O=C(Nc1cc(C(F)(F)F)cc(C(F)(F)F)c1)c1cccc(O)c1O [compound 57] |  |  | 91.9% | 
12 | Cc1cccc(C(=O)Nc2cc(C(F)(F)F)cc(C(F)(F)F)c2)c1O [compound 58, N-[3,5-bis(trifluoromethyl)phenyl]-2-hydroxy-3-methylbenzamide] | 88.2% | 95% |  | 
13 | COc1cccc(C(=O)Nc2cc(C(F)(F)F)cc(C(F)(F)F)c2)c1O [compound 59] |  |  | 94.7% | 41.9%
14 | CC(C)(C)CC(C)(C)c1ccc(O)c(C(=O)Nc2cc(C(F)(F)F)cc(C(F)(F)F)c2)c1 [compound 60] |  |  | 99.1% | 94.0%
15 | O=C(Nc1cc(C(F)(F)F)cc(C(F)(F)F)c1)c1c(O)c(Cl)cc(Cl)c1Cl [compound 61] |  |  | 97.2% | 95.1%
16 | CC(C)(C)c1cc(C(=O)Nc2cc(C(F)(F)F)cc(C(F)(F)F)c2)c(O)c(C(C)(C)C)c1 [compound 62] |  |  | 86.9% | 37.0%
17 | O=C(Nc1cc(C(F)(F)F)cc(C(F)(F)F)c1)c1cccc(Cl)c1O [compound 64] |  |  | 94.1% | 84.9%
18 | COc1ccc(C(=O)Nc2cc(C(F)(F)F)cc(C(F)(F)F)c2)c(O)c1 [compound 65] |  |  | 89.8% | 83.3%
19 | O=C(Nc1cc(C(F)(F)F)cc(C(F)(F)F)c1)c1cc2ccccc2cc1O [compound 72] |  |  | 95.0% | 94.6%
20 | O=C(Nc1cc(C(F)(F)F)cc(C(F)(F)F)c1)c1scc(Br)c1O [compound 74, 4-Bromo-3-hydroxy-N-[3,5-bis(trifluoromethyl)phenyl]thiophene-2-carboxamide] | 64% | 97.5% |  | 
21 | O=C(Nc1cc(C(F)(F)F)cc(C(F)(F)F)c1)c1nc2ccccc2nc1O [compound 80] |  |  | 73.0% | 46.3%
22 | O=C(Nc1cc(C(F)(F)F)ccc1C(F)(F)F)c1cc(Cl)ccc1O [compound 81, N-[2,5-bis(trifluoromethyl)phenyl]-5-chloro-2-hydroxybenzamide] | 95% | 96.3% |  | 
23 | CC(=O)Oc1ccc(Cl)cc1C(=O)Nc1cc(C(F)(F)F)ccc1C(F)(F)F [compound 82] |  |  | 96.8% | 94.0%
24 | O=C(Nc1cc(C(F)(F)F)ccc1C(F)(F)F)c1cc(Br)ccc1O [compound 83] |  |  | 98.3% | 95.7%
25 | Cc1ccc(O)c(C(=O)Nc2cc(C(F)(F)F)ccc2C(F)(F)F)c1 [compound 84] |  |  | 96.6% | 92.6%

Row | SMILES | inhibition at 1 µg/mL (Drug concentration at 1 μg/mL) | inhibition at 10 µg/mL (Drug concentration at 10 μg/mL) | Inhibitory rate against NF-κB activation (%) (Drug concentration at 10 μg/mL) | Inhibitory rate against NF-κB activation (%) (Drug concentration at 1 μg/mL)
26 | O=C(Nc1cc(F)cc(C(F)(F)F)c1)c1cc(Cl)ccc1O [compound 85] |  |  | 98.9% | 94.7%
27 | O=C(Nc1cc(Br)cc(C(F)(F)F)c1)c1cc(Br)ccc1O [compound 86] |  |  | 98.7% | 96.7%
28 | O=C(Nc1cc(C(F)(F)F)ccc1F)c1cc(Cl)ccc1O [compound 87] |  |  | 95.9% | 93.1%
29 | O=C(Nc1cc(C(F)(F)F)ccc1Cl)c1cc(Cl)ccc1O [compound 88, 5-chloro-N-[2-chloro-5-(trifluoromethyl)phenyl]-2-hydroxybenzamide] | 94.8% | 97.1% |  | 
30 | CC(=O)Oc1ccc(Cl)cc1C(=O)Nc1cc(C(F)(F)F)ccc1Cl [compound 89] |  |  | 97.4% | 96.7%
31 | O=C(Nc1cc(C(F)(F)F)ccc1Cl)c1cc(Br)ccc1O [compound 90] |  |  | 94.1% | 88.9%
32 | O=C(Nc1cc(C(F)(F)F)ccc1[N+](=O)[O-])c1cc(Cl)ccc1O [compound 91] |  |  | 96.7% | 86.3%
33 | Cc1ccc(C(F)(F)F)cc1NC(=O)c1cc(Cl)ccc1O [compound 92] |  |  | 97.9% | 93.8%
34 | COc1cc(NC(=O)c2cc(Br)ccc2O)cc(C(F)(F)F)c1 [compound 93] |  |  | 97.2% | 84.5%
35 | COc1ccc(C(F)(F)F)cc1NC(=O)c1cc(Br)ccc1O [compound 94] |  |  | 93.4% | 76.6%
36 | COc1ccc(C(F)(F)F)cc1NC(=O)c1cc(Cl)ccc1O [compound 95] |  |  | 98.5% | 91.8%
37 | CSc1ccc(C(F)(F)F)cc1NC(=O)c1cc(Cl)ccc1O [compound 96] |  |  | 99.1% | 94.6%
38 | O=C(Nc1cc(C(F)(F)F)ccc1N1CCCC1)c1cc(Br)ccc1O [compound 97] |  |  | 97.8% | 95.8%
39 | O=C(Nc1cc(C(F)(F)F)ccc1Cl)c1cc([N+](=O)[O-])ccc1O [compound 99] |  |  | 98.0% | 54.3%
40 | Cc1ccc(O)c(C(=O)Nc2cc(C(F)(F)F)ccc2Cl)c1 [compound 100] |  |  | 95.1% | 85.6%
41 | Cc1ccc(O)c(C(=O)Nc2cc(C(F)(F)F)ccc2C)c1 [compound 102] |  |  | 98.3% | 89.3%
42 | O=C(Nc1cc(Br)cc(C(F)(F)F)c1)c1cc(Cl)ccc1O [compound 104] |  |  | 99.2% | 97.2%
43 | COc1cc(NC(=O)c2cc(Cl)ccc2O)cc(C(F)(F)F)c1 [compound 105] |  |  | 97.5% | 94.6%
44 | O=C(Nc1cc(C(F)(F)F)ccc1N1CCOCC1)c1cc(Cl)ccc1O [compound 106] |  |  | 92.1% | 92.3%
45 | O=C(Nc1cc(C(F)(F)F)ccc1Br)c1cc(Cl)ccc1O [compound 107] |  |  | 96.2% | 94.9%
46 | COC(=O)c1cc(NC(=O)c2cc(Cl)ccc2O)cc(C(F)(F)F)c1 [compound 108, 5-chloro-2-hydroxy-N-[3-methoxycarbonyl-5-(trifluoromethyl)phenyl]benzamide] | 41.5% | 88.4% |  | 
47 | O=C(Nc1cc(C(F)(F)F)ccc1Oc1ccc2ccccc2c1)c1cc(Cl)ccc1O [compound 110] |  |  | 98.7% | 96.5%
48 | O=C(Nc1cc(C(F)(F)F)ccc1Oc1ccc(Cl)cc1Cl)c1cc(Cl)ccc1O [compound 111] |  |  | 99.7% | 96.5%
49 | O=C(Nc1cc(C(F)(F)F)ccc1N1CCC(C(F)(F)F)CC1)c1cc(Cl)ccc1O [compound 112] |  |  | 95.7% | 96.5%
